Values joined by “and” are separate entries in the source; they are usually repeats but may differ in a detail not shown here. Identical values can stand only once.
Key:
[1] = system: hematopoietic cell subsets in the spleen; assay: In vivo selection with MFM vector: flow cytometry of hematopoietic cell subsets in the spleen; design: species or system B6D2F1 mice; TER119 (erythroid) cells in the spleen / CD11b (myeloid) cells in the spleen / CD41 (megakaryocytic) cells in the spleen / CD3 (T-lymphoid) cells in the spleen / B220 (B-lymphoid) cells in the spleen: unit not given here
Experimental: (§1) Marrow cells from B6D2F1 mice were transduced as follows: fluorouracil, 150 mg/kg, was injected intraperitoneally into female B6D2F1 mice. Forty-eight hours later, marrow cells were harvested and cultured for 48 hours in DMEM containing 16% fetal calf serum, 5% IL-3 conditioned medium, 100 ng/ml recombinant IL-6, and 50 ng/ml recombinant murine stem cell factor in a 37° C., 5% CO2 incubator. After 48 hours of prestimulation, cells were transferred onto irradiated (1500 cGy) producer cells and cocultivated using identical growth conditions except for the addition of polybrene (8 μg per ml). The producer cells generate retroviral particles containing the MFM vector that are able to infect the bone marrow cells. Therefore, the MFM retrovirus is introduced into the bone marrow cells during the period of cocultivation. Marrow cells were harvested after 48 hours of cocultivation and 8×10^6 cells were injected into each of 10 lethally irradiated (1050 cGy) B6D2F1 mice. Immediately following transplantation, five mice received intraperitoneal injections of AP20187 daily at a dose of 2 mg/kg/day for forty consecutive days. Five control mice received daily injections of the drug diluent (see below) without AP20187.
(§2) AP20187 was prepared as follows: Drug was solubilized in ethanol, then PEG 400 was added. Finally, a mixture of water and Tween 80 was added to achieve final concentrations of ethanol of 4%, PEG400 10% and Tween 1.4%.
To characterize the types of cells expanding in response to AP20187, flow cytometry was performed using antibodies directed against myeloid (CD11b), erythroid (TER119), megakaryocytic (CD41), B-lymphoid (B-220) and T-lymphoid (CD3) cells.

[2] = system: genetically modified progenitor cells in the spleen; assay: In vivo selection with MFM vector: G418 resistant colonies in the spleen; design: species or system B6D2F1 mice; conditions: after 40 days
Experimental: as §1, §2
(§3) After 40 days of drug administration, splenectomies were performed; spleens were weighed and spleen cells were tested in clonogenic assays to determine the frequency of genetically modified progenitor cells.

[3] = system: spleen; assay: In vivo selection with MFM vector: spleen weight; design: species or system B6D2F1 mice; conditions: after 40 days
Experimental: as §1, §2, §3

[4] = system: primary murine bone marrow cells expressing the F36Vmpl fusion protein; assay: Response of marrow cells expressing F36Vmpl (MFM vector) to AP20187; format: cell-based; conditions: compared with FK1012 (data not shown)
Source text: A MSCVneo-based retroviral vector encoding a fusion protein identical to F1mpl except for the presence of the F36V mutation was built and tested. This vector, MFM (FIG. 4), has been used to derive a genetically stable, high titer ecotropic producer cell line using the methods described in Example 5.

[5] = system: genetically modified progenitor cells in the femur; assay: In vivo selection with MFM vector: G418 resistant colonies in the femur (bone marrow aspirates); design: species or system B6D2F1 mice
Experimental: as §1, §2
The presence of the neo gene in the MFM vector allows the frequency of genetically modified progenitor cells to be determined by performing clonogenic assays either in the presence or absence of G418. After 32 days of drug administration, bone marrow aspirates were performed and the frequency of clonogenic progenitor cells was determined. Results are shown as follows:
Sufficient numbers of bone marrow cells were obtained on the aspirates of one control and one drug treated mouse (numbers 191 and 195, respectively) to permit Southern analysis.

[6] = system: cells; assay: Immunosuppressive activity or other toxicity to cells; format: cell-based; conditions: in experiments to date
[7] = In vivo half life
[8] = molecular target: endogenous FKBP12 (Homo sapiens, UniProt P62942); assay: Binding to endogenous FKBP12
[9] = system: MH cells expressing chimeric receptors; assay: DNA synthesis (BrdU incorporation) in MH cells expressing FKBP chimeric receptors; format: cell-based, monkey (Macaca fascicularis); conditions: serum-starved MH cells, 3 days after AP20187 addition; compared with nonspecific induction by AP20187 alone
Experimental: FIG. 5. DNA synthesis in MH cells expressing FKBP chimeric receptors after stimulation with AP20187. 5×10^4 MH cells were plated per well (24 well plate) in the presence of FCS. 24 hours after retrovirus infection, culture medium was replaced by serum-free medium and cells were starved for 6 days. At this time point AP20187 was added to one set of cells and BrdU incorporation was measured three days after induction. BrdU labeled cells were counted in four independent areas for each sample (N=3) and expressed as the percentage of BrdU (+) cells. The (+) and (−) symbols after the chimeric gene designations indicates the presence and absence of AP20187, respectively. […]
To test the proliferation properties of MH cells, cellular DNA replication based on incorporation of BrdU was analyzed. […] After this, BrdU labeled DNA was detected in cell nuclei by immuno-histochemistry with BrdU-specific antibodies.
Retroviruse vectors expressing the chimeric receptors provided in TABLE 9 were prepared as a means for gene transfer into hepatocytes. […] Next, the percentage of MH cells grown in the presence of FCS and HGF that can be transduced by an amphotropic β-Gal virus after an incubation of 5 hours at an MOI of 1 cfu per cell was determined. […] At this time point AP20187 was added to one set of cells and BrdU incorporation was measured three days after induction. […]

[10] = group mean, spleen, flow cytometry
[11] = individual mice, flow cytometry, after 40 days
[12] = individual mice, 2 mg/kg/day i.p., 2 mg/kg/day

endogenous FKBP12, sequence (P62942 whole entry, species assumed): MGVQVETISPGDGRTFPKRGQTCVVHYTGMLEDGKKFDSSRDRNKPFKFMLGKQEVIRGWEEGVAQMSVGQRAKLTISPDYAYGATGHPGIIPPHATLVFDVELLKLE

## CC[C@H](C(=O)N1CCCC[C@H]1C(=O)O[C@H](CCc1ccc(OC)c(OC)c1)c1cccc(OCC(=O)NCC(CNC(=O)COc2cccc([C@@H](CCc3ccc(OC)c(OC)c3)OC(=O)[C@@H]3CCCCN3C(=O)[C@@H](CC)c3cc(OC)c(OC)c(OC)c3)c2)CN(C)C)c1)c1cc(OC)c(OC)c(OC)c1 [AP20187]
[1]; [10]
  B220, mean (standard deviation): 29.2 (5.1)
  CD3, mean (standard deviation): 12.2 (8.2)
  CD11b, mean (standard deviation): 10.2 (2.5)
  CD41, mean (standard deviation): 1.4 (1.1)
  TER119, mean (standard deviation): 27.7 (8.1)
[1]; [11]
  B220 (B-lymphoid) cells in the spleen: 31.6 and 24.5 and 23.0 and 33.2 and 33.8
  CD3 (T-lymphoid) cells in the spleen: 24.4 and 8.4 and 4.8 and 6.5 and 16.8
  CD11b (myeloid) cells in the spleen: 9.5 and 7.8 and 12.8 and 8.2 and 13.0
  CD41 (megakaryocytic) cells in the spleen: 0.7 and 0.5 and 1.1 and 3.3 and 1.4
  TER119 (erythroid) cells in the spleen: 21.0 and 28.2 and 40.8 and 27.4 and 21.1
[1]; versus control group
  change in hematopoietic cell subsets in the spleen: increase in myeloid (CD11b-positive) and erythroid (TER119-positive) cells in the spleen
[2]; group mean (+/−)
  G418 Resistant (spleen colonies), Mean: 9 (+/−8.7%)
[2]; [12]
  G418 Resistant (spleen colonies): 4.1% and 5.2% and 6.4% and 24.5% and 4.8%
[2]; versus control group
  percentage of genetically modified progenitor cells in the spleen: increased percentage of genetically modified progenitor cells in the spleen that did not achieve statistical significance
[3]; group mean (+/−)
  Spleen Weight, Mean: 208.9 (+/−43.5) mg
[3]; [12]
  Spleen Weight: 200 mg and 190 mg and 279 mg and 213 mg and 162 mg
[3]; versus control group
  spleen size: significant increase in spleen size
[4]
  proliferative and differentiative responses: indistinguishable from those we have observed using FK1012
[5]; after 32 days, did not achieve statistical significance
  mean number of G418 resistant colony forming cells in the femur relative to control group: approximately 2 fold
[5]; group mean (+/−), 2 mg/kg/day i.p., after 32 days
  Percentage of G418 Resistant Colonies (femur), Mean: 20.9 (+/−13.3) %
[5]; individual mice, 2 mg/kg/day i.p., after 32 days of drug administration, 2 mg/kg/day
  Percentage of G418 Resistant Colonies (femur): 39.3% and 14.7% and 17.7% and 28.1% and 4.6%
[5]; one drug treated mouse (195) versus one control (191)
  proviral signal by Southern analysis of bone marrow aspirates: detectable only in the mouse that had received AP20187
[6]
  immunosuppressive activity or other toxicity to cells: no immunosuppressive activity or other toxicity to cells
[7]
  in vivo half life: 9 h
[8]
  binding to endogenous FKBP12: does not bind to endogenous FKBP12
[9]
  effect on DNA proliferation (BrdU incorporation): clear effect on DNA proliferation in MH expressing chimeric receptors
